# Laboratory results from patent publication US11053204B2, “Pyrimidinyloxy benzene derivatives as herbicides” (FMC Corporation, priority 2015, dated 2021).
# How the values were obtained:
# Format in all cases: in vivo
# [1] = system: blackgrass (Alopecurus myosuroides); assay: Test C postemergence, plant response rating; details: Alopecurus myosuroides, post-emergence
# Description: (§1) Seeds of plant species selected from blackgrass (Alopecurus myosuroides), ryegrass, Italian (Italian ryegrass, Lolium multiflorum), wheat (winter wheat, Triticum aestivum), galium (catchweed bedstraw, Galium aparine), corn (Zea mays), crabgrass, large (large crabgrass, Digitaria sanguinalis), foxtail, giant (giant foxtail, Setaria faberii), johnsongrass (Sorghum halepense), lambsquarters (Chenopodium album), morningglory (Ipomoea coccinea), nutsedge, yellow (yellow nutsedge, Cyperus esculentus), pigweed (Amaranthus retroflexus), ragweed (common ragweed, Ambrosia elatior), soybean (Glycine max), barnyardgrass (Echinochloa crus-galli), oilseed rape (Brassica napus), pigweed, palmer (palmer pigweed, Amaranthus palmeri), waterhemp (common waterhemp, Amaranthus rudis), velvetleaf (Abutilon theophrasti), kochia (Kochia scoparia), surinam grass (Brachiaria decumbens), nightshade (eastern black nightshade, Solanum ptycanthum), wild poinsettia (Euphorbia heterophylla), windgrass (Apera spica-venti), and oat, wild (wild oat Avena fatua), were planted into a blend of loam soil and sand or a silt loam soil and treated preemergence with test chemicals formulated in a non-phytotoxic solvent mixture which included a surfactant.
# (§2) At the same time, plants selected from these crop and weed species and also chickweed (common chickweed, Stellaria media), buckwheat, wild (wild buckwheat, Polygonum convolvulus), wild mustard (Sinapis arvensis), field poppy (Papaver rhoeas), field violet (Viola arvensis), geranium, cutleaf (cutleaf geranium, Geranium dissectum), Canada thistle (Cirsium arvense), and speedwell (bird's-eye speedwell, Veronica persica), were planted in pots containing Sunshine Redi-Earth® planting medium comprising spaghnum peat moss, vermiculite, starter nutrients and dolomitic limestone and treated with postemergence applications of test chemicals formulated in the same manner. Plants ranged in height from 2 to 18 cm (1- to 4-leaf stage) for postemergence treatments. Treated plants and controls were maintained in a greenhouse for 13 to 15 d, after which time all species were compared to controls and visually evaluated. Plant response ratings, summarized in Table C, are based on a scale of 0 to 100 where 0 is no effect and 100 is complete control. A dash (-) response means no test result.
# [2] = system: oilseed rape (Brassica napus); assay: Test C postemergence, plant response rating; details: Brassica napus, post-emergence
# Description: as §1, §2
# [3] = system: waterhemp (common waterhemp, Amaranthus rudis); assay: Test C postemergence, plant response rating; details: for Plant response rating, Waterhemp: scale 0 to 100; for Waterhemp plant response rating: scale 0 to 100 (0 no effect, 100 complete control)
# Description: as §1, §2
# [4] = system: chickweed (common chickweed, Stellaria media); assay: Test C postemergence, plant response rating; details: Stellaria media, post-emergence
# Description: as §1, §2
# [5] = system: foxtail, giant (giant foxtail, Setaria faberii); assay: Test C postemergence, plant response rating; details: Setaria faberi, post-emergence
# Description: as §1, §2
# [6] = system: soybean (Glycine max); assay: Test C postemergence, plant response rating; details: Glycine max, post-emergence
# Description: as §1, §2
# [7] = system: ryegrass, Italian (Italian ryegrass, Lolium multiflorum); assay: Test C postemergence, plant response rating; details: Lolium multiflorum, post-emergence
# Description: as §1, §2
# [8] = system: galium (catchweed bedstraw, Galium aparine); assay: Test C postemergence, plant response rating; details: Galium, post-emergence
# Description: as §1, §2
# [9] = system: wheat (winter wheat, Triticum aestivum); assay: Test C postemergence, plant response rating; details: Triticum aestivum, post-emergence
# Description: as §1, §2
# [10] = system: blackgrass (Alopecurus myosuroides); assay: Test A postemergence, visual injury rating; details: Alopecurus myosuroides, post-emergence, 240 h, 0 is no effect, 100 is complete control, read-out: Blackgrass plant response rating (0 to 100 scale)
# Procedure, shortened: (§3)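 Greenhouse pot test, loam/sand soil. Formulation: non-phytotoxic solvent mix plus surfactant. Pre: directed spray onto soil after sowing. Post: plants at 1–2 leaf, 2–10 cm. Rated visually vs untreated controls at ~10 d, 0 (no effect) to 100 (complete control).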
# [11] = system: kochia (Kochia scoparia); assay: Test A postemergence, visual injury rating; details: Bassia scoparia, post-emergence, 240 h, 0 is no effect, 100 is complete control, read-out: Kochia plant response rating (0 to 100 scale)
# Procedure, shortened: as §3
# [12] = system: barnyardgrass (Echinochloa crus-galli); assay: Test A postemergence, visual injury rating; details: Echinochloa crus-galli, post-emergence, 240 h, 0 is no effect, 100 is complete control, read-out: Barnyardgrass plant response rating (0 to 100 scale)
# Procedure, shortened: as §3
# [13] = system: giant foxtail (Setaria faberii); assay: Test A postemergence, visual injury rating; details: Setaria faberi, post-emergence, 240 h, 0 is no effect, 100 is complete control, read-out: Foxtail, Giant plant response rating (0 to 100 scale)
# Procedure, shortened: as §3
# [14] = system: Italian ryegrass (Lolium multiflorum); assay: Test A postemergence, visual injury rating; details: Lolium multiflorum, post-emergence, 240 h, 0 is no effect, 100 is complete control, read-out: Ryegrass, Italian plant response rating (0 to 100 scale)
# Procedure, shortened: as §3
# [15] = system: pigweed (Amaranthus retroflexus); assay: Test A postemergence, visual injury rating; details: Amaranthus retroflexus, post-emergence, 240 h, 0 is no effect, 100 is complete control, read-out: Pigweed plant response rating (0 to 100 scale)
# Procedure, shortened: as §3
# [16] = system: wheat (Triticum aestivum); assay: Test A postemergence, visual injury rating; details: Triticum aestivum, post-emergence, 240 h, 0 is no effect, 100 is complete control, read-out: Wheat plant response rating (0 to 100 scale)
# Procedure, shortened: as §3
# [17] = system: ragweed (common ragweed, Ambrosia elatior); assay: Test A postemergence, visual injury rating; details: Ambrosia artemisiifolia, post-emergence, 240 h, 0 is no effect, 100 is complete control, read-out: Ragweed plant response rating (0 to 100 scale)
# Procedure, shortened: as §3
# [18] = system: galium (catchweed bedstraw, Galium aparine); assay: Test A postemergence, visual injury rating; details: Galium, post-emergence, 240 h, 0 is no effect, 100 is complete control, read-out: Galium plant response rating (0 to 100 scale)
# Procedure, shortened: as §3
# [19] = system: corn (Zea mays); assay: Test A postemergence, visual injury rating; details: Zea mays, post-emergence, 240 h, 0 is no effect, 100 is complete control, read-out: Corn plant response rating (0 to 100 scale)
# Procedure, shortened: as §3
# [20] = 62 g ai/ha, scale 0 to 100 (0 no effect, 100 complete control)
# [21] = 125 g ai/ha, scale 0 to 100 (0 no effect, 100 complete control)
smiles,measurement,setting,value
"C=CCCOC(=O)c1c(Br)cccc1Oc1ncc(Cl)cn1 [Compound 21, 3-buten-1-yl 2-bromo-6-[(5-chloro-2-pyrimidinyl)oxy]benzoate]",pest or weed control at 16 g/ha,"[1]; 16 g ai/ha, scale 0 to 100",0%
same,pest or weed control at 31 g/ha,"[1]; 31 g ai/ha, scale 0 to 100",0%
same,pest or weed control at 62 g/ha,[1]; [20],5%
same,pest or weed control at 125 g/ha,[1]; [21],5%
same,plant injury at 16 g/ha,"[2]; 16 g ai/ha, scale 0 to 100",30%
same,plant injury at 31 g/ha,"[2]; 31 g ai/ha, scale 0 to 100",40%
same,plant injury at 62 g/ha,[2]; [20],50%
same,plant injury at 125 g/ha,[2]; [21],30%
same,"Plant response rating, Waterhemp",[3]; 16 g ai/ha,75
same,"Plant response rating, Waterhemp",[3]; 31 g ai/ha,85
same,Waterhemp plant response rating,[3]; 62 g ai/ha,90
same,Waterhemp plant response rating,[3]; 125 g ai/ha,85
same,pest or weed control at 16 g/ha,"[4]; 16 g ai/ha, scale 0 to 100",40%
same,pest or weed control at 31 g/ha,"[4]; 31 g ai/ha, scale 0 to 100",50%
same,pest or weed control at 62 g/ha,[4]; [20],50%
same,pest or weed control at 125 g/ha,[4]; [21],80%
same,pest or weed control at 16 g/ha,"[5]; 16 g ai/ha, scale 0 to 100",10%
same,pest or weed control at 31 g/ha,"[5]; 31 g ai/ha, scale 0 to 100",10%
same,pest or weed control at 62 g/ha,[5]; [20],20%
same,pest or weed control at 125 g/ha,[5]; [21],15%
same,plant injury at 16 g/ha,"[6]; 16 g ai/ha, scale 0 to 100",30%
same,plant injury at 31 g/ha,"[6]; 31 g ai/ha, scale 0 to 100",40%
same,plant injury at 62 g/ha,[6]; [20],60%
same,plant injury at 125 g/ha,[6]; [21],60%
same,pest or weed control at 16 g/ha,"[7]; 16 g ai/ha, scale 0 to 100",0%
same,pest or weed control at 31 g/ha,"[7]; 31 g ai/ha, scale 0 to 100",0%
same,pest or weed control at 62 g/ha,[7]; [20],0%
same,pest or weed control at 125 g/ha,[7]; [21],15%
same,pest or weed control at 16 g/ha,"[8]; 16 g ai/ha, scale 0 to 100",55%
same,pest or weed control at 31 g/ha,"[8]; 31 g ai/ha, scale 0 to 100",80%
same,pest or weed control at 62 g/ha,[8]; [20],75%
same,pest or weed control at 125 g/ha,[8]; [21],80%
same,plant injury at 16 g/ha,"[9]; 16 g ai/ha, scale 0 to 100",0%
same,plant injury at 31 g/ha,"[9]; 31 g ai/ha, scale 0 to 100",0%
same,plant injury at 62 g/ha,"[9]; 62 g ai/ha, scale 0 to 100 (0 no effect, 100 complete control), read-out: Wheat plant response rating",0%
same,plant injury at 125 g/ha,[9]; [21],0%
same,pest or weed control at 125 g/ha,[10]; 125 g ai/ha,60%
same,pest or weed control at 500 g/ha,[10]; 500 g ai/ha,80%
same,pest or weed control at 125 g/ha,[11]; 125 g ai/ha,90%
same,pest or weed control at 500 g/ha,[11]; 500 g ai/ha,100%
same,pest or weed control at 125 g/ha,[12]; 125 g ai/ha,70%
same,pest or weed control at 500 g/ha,[12]; 500 g ai/ha,100%
same,pest or weed control at 125 g/ha,[13]; 125 g ai/ha,70%
same,pest or weed control at 500 g/ha,[13]; 500 g ai/ha,100%
same,pest or weed control at 125 g/ha,[14]; 125 g ai/ha,0%
same,pest or weed control at 500 g/ha,[14]; 500 g ai/ha,90%
same,pest or weed control at 125 g/ha,[15]; 125 g ai/ha,80%
same,pest or weed control at 500 g/ha,[15]; 500 g ai/ha,100%
same,plant injury at 125 g/ha,[16]; 125 g ai/ha,0%
same,plant injury at 500 g/ha,[16]; 500 g ai/ha,40%
same,pest or weed control at 125 g/ha,[17]; 125 g ai/ha,0%
same,pest or weed control at 500 g/ha,[17]; 500 g ai/ha,40%
same,pest or weed control at 125 g/ha,[18]; 125 g ai/ha,80%
same,pest or weed control at 500 g/ha,[18]; 500 g ai/ha,90%
same,plant injury at 125 g/ha,[19]; 125 g ai/ha,30%
same,plant injury at 500 g/ha,[19]; 500 g ai/ha,60%
